Source: BindingDB's records for doi:10.1021/acs.jmedchem.9b01509 (University of Chemistry and Technology Prague, 2020)

Target: Sarcoplasmic/endoplasmic reticulum calcium ATPase 1 (Oryctolagus cuniculus, UniProt P04191)
Experiment: Inhibition of rabbit SERCA1a preincubated for 10 mins followed by addition of ATP and measured after 10 mins by colorimetric method

Chain of Sarcoplasmic/endoplasmic reticulum calcium ATPase 1 (P04191 whole entry): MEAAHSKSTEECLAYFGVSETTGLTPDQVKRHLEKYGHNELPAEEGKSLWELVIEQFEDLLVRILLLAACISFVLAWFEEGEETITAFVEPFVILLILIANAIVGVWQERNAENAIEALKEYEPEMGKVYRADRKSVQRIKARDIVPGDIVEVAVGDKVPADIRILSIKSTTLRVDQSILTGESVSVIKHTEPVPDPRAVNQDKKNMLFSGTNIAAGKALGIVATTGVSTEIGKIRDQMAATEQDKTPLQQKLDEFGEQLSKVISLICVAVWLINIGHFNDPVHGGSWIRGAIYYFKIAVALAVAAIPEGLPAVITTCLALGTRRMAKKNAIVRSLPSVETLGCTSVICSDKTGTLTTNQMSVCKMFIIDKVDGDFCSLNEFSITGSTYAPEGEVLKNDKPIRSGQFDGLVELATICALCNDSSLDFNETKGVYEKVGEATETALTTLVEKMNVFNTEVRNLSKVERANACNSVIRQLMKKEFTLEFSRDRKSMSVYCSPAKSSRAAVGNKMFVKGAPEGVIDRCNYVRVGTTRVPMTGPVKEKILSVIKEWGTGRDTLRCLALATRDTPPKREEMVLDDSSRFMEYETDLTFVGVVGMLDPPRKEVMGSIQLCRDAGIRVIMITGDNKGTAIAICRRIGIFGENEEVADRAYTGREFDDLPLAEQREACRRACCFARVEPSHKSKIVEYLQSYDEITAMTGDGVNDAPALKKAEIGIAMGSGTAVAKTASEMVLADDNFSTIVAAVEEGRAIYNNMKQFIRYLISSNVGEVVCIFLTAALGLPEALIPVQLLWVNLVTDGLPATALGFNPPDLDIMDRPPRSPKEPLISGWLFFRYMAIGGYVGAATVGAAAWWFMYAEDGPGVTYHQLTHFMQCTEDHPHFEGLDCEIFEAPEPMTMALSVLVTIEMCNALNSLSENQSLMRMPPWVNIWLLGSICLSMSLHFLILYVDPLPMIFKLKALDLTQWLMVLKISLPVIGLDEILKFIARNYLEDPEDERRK

Question: With `CC[C@H](C)[C@H]1O[C@]2(CC[C@@H]1C)C[C@@H]1C[C@@H](C/C=C(\C)[C@@H](O[C@H]3C[C@H](OC)[C@@H](O[C@H]4C[C@H](OC)[C@@H](O)[C@H](C)O4)[C@H](C)O3)[C@@H](C)/C=C/C=C3\CO[C@@H]4[C@H](O)C(C)=C[C@@H](C(=O)O1)[C@]34O)O2` [ABAMECTIN] as the compound, how does the IC50 read?
Answer: 15 µM
